Assay results published in paper PMC4982073, “Structural and kinetic studies on RosA, the enzyme catalysing the methylation of 8‐demethyl‐8‐amino‐D‐riboflavin to the antibiotic roseoflavin” (The Febs Journal, 2016).
Where two headings read alike, the source gives them in different places. One block for each molecule: values may come before it.

Key:
[1] = molecular target: T1, RosA (N,N-8-demethyl-8-amino-D-riboflavin dimethyltransferase) (Streptomyces davaonensis, UniProt K4RFM2); experiment: isothermal titration calorimetry; format: binding
T1 construct: full length, hexahistidine-tagged (pET24a(+)rosA-His6, pFJ02), tag kept, E. coli Rosetta 2 (DE3); 353 amino acids; subunit 38 kDa, native 77 kDa, homodimer
Source text: isothermal titration calorimetry on RosA (N,N-8-demethyl-8-amino-D-riboflavin dimethyltransferase)

[2] = molecular target: N,N‐8‐demethyl‐8‐amino‐D‐riboflavin dimethyltransferase (RosA), hexahistidine‐tagged (Streptomyces davawensis); experiment: SEC; Superdex 200 10/300 GL, 25 °C, 50 mM Tris-HCl pH 8.0 with 100 mM NaCl, 0.5 mL/min, calibrated with standard proteins; native mass about 77 kDa against a subunit mass of 38 kDa
[3] = molecular target: T1, RosA (N,N-8-demethyl-8-amino-D-riboflavin dimethyltransferase); experiment: initial rates of RoF formation at […] nm, Henderson plot (tight-binding inhibition); format: biochemical
purified protein [4] = substrate: Cc1cc2nc3c(=O)[nH]c(=O)nc-3n(C[C@H](O)[C@H](O)[C@H](O)CO)c2cc1N; experiment: purified protein; format: biochemical, Streptomyces davaonensis; conditions: varied SAM (20-250 μM), 50 mM Tris/HCl pH 8.0, 100 mM NaCl, 25 °C, random-order bi-bi
purified protein [5] = substrate: C[S+](CC[C@H](N)C(=O)O)C[C@H]1O[C@@H](n2cnc3c(N)ncnc32)[C@H](O)[C@@H]1O; experiment: purified protein; conditions: varied AF (20-100 μM), 50 mM Tris/HCl pH 8.0, 100 mM NaCl, 25 °C, random-order bi-bi

- Kd ([1]; read-out: AF): 10 ± 1 µM
Molecule: Cc1cc2nc3c(=O)[nH]c(=O)nc-3n(C[C@H](O)[C@H](O)[C@H](O)CO)c2cc1N [AF]

- stoichiometry N [2]: 2
Molecule: N,N‐8‐demethyl‐8‐amino‐D‐riboflavin dimethyltransferase (RosA), hexahistidine‐tagged (enzyme)

- Kd ([1]; read-out: SAH): 2 ± 0.1 µM
- Ki [3]: 7 µM
Molecule: Nc1ncnc2c1ncn2[C@@H]1O[C@H](CSCC[C@H](N)C(=O)O)[C@@H](O)[C@H]1O [SAH]

- Kd ([1]; read-out: RoF): 0.8 ± 0.05 µM
- Ki [3]: 27 µM
Molecule: Cc1cc2nc3c(=O)[nH]c(=O)nc-3n(C[C@H](O)[C@H](O)[C@H](O)CO)c2cc1N(C)C [RoF]

- Kd [1]: 22 ± 2 µM
Molecule: C[S+](CC[C@H](N)C(=O)O)C[C@H]1O[C@@H](n2cnc3c(N)ncnc32)[C@H](O)[C@@H]1O (some centres unmarked) [SAM]

B1: RosA (N,N-8-demethyl-8-amino-D-riboflavin dimethyltransferase) (Streptomyces davaonensis JCM 4913) (protein)
chain: MRPEPTEHPERTAAQRLYQYNVDLKVAFVLYAVAKLHLPDLLADGPRTTADLAAATGSDPSRLRRLLRAAAGADALREVPEDSFELAPMGDLLRSGHPRSMRGMTTFFAEPDVLAAYGDLVESVRTGVPAFQLRHREPLYDFLARPQHKEVRDEFDAAMVEFGQYFADDFLTSFDFGRFTRFADIGGGRGQFLAGVLTAVPSSTGVLVDGPAVAASAHKFLASQNLTERVEVRIGDFFDVLPTGCDAYVLRGVLEDWADADAVRLLVRIRQAMGDAPEARLLILDSVIGETGELGKVLDLDMLVLVEGEHRTRAQWDDLLARAGFDIVGIHPAGDVWAVIECRGTAG
notes: full length, hexahistidine-tagged (pET24a(+)rosA-His6, pFJ02), tag kept, E. coli Rosetta 2 (DE3); 353 amino acids; subunit 38 kDa, native 77 kDa, homodimer
- Km (purified protein [4]): 4 µM
- kcat (purified protein [4]): 0.001 s⁻¹
- Km (purified protein [5]): 70 µM
- kcat (purified protein [5]): 0.001 s⁻¹
